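Compound exposure: 48 hours, 5 concentrations, 96-well plates. TGI denotes the concentration required for complete inhibition of growth.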 Where a SMILES comes first, the peptide text is derived from it. The star is where a group is joined. Boc = CC(C)(C)OC(=O)*; OBn = c1ccc(CO*)cc1
Assays:
Assay in all cases: NCI-60 cell line screen, 48 h
HT29 colon = system: HT29 colon
CCRF-CEM leukemia = system: CCRF-CEM leukemia
CAKI-1 renal = system: CAKI-1 renal
IGROV1 ovarian = system: IGROV1 ovarian
SK-OV-3 ovarian = system: SK-OV-3 ovarian
MCF7 breast = system: MCF7 breast
OVCAR-5 ovarian = system: OVCAR-5 ovarian
UACC-62 melanoma = system: UACC-62 melanoma
MDA-MB-435 = system: MDA-MB-435
RXF 393 renal = system: RXF 393 renal
MALME-3M melanoma = system: MALME-3M melanoma
HS 578T breast = system: HS 578T breast
MDA-MB-231 breast = system: MDA-MB-231 breast
SNB-19 CNS = system: SNB-19 CNS
EKVX NSCLC = system: EKVX NSCLC
OVCAR-8 ovarian = system: OVCAR-8 ovarian
786-0 renal = system: 786-0 renal
NCI-H23 lung = system: NCI-H23 lung
LOX IMVI melanoma = system: LOX IMVI melanoma
DMS 114 small cell lung = system: DMS 114 small cell lung

Structure (SMILES)	TGI (HT29 colon)	TGI (CCRF-CEM leukemia)	TGI (CAKI-1 renal)	TGI (IGROV1 ovarian)	TGI (SK-OV-3 ovarian)	TGI (MCF7 breast)	TGI (OVCAR-5 ovarian)	TGI (UACC-62 melanoma)	TGI (MDA-MB-435)	TGI (RXF 393 renal)	TGI (MALME-3M melanoma)	TGI (HS 578T breast)	TGI (MDA-MB-231 breast)	TGI (SNB-19 CNS)	TGI (EKVX NSCLC)	TGI (OVCAR-8 ovarian)	TGI (786-0 renal)	TGI (NCI-H23 lung)	TGI (LOX IMVI melanoma)	TGI (DMS 114 small cell lung)
Nc1ccc(OCCCc2c(-c3ccccc3)nc(N)[nH]c2=O)cc1	> 100 µM	> 100 µM	> 100 µM	> 100 µM	> 100 µM	> 100 µM	> 100 µM	43 µM	> 100 µM	> 100 µM	> 100 µM	> 100 µM	> 100 µM	> 100 µM	> 100 µM	> 100 µM	> 100 µM	> 100 µM	> 100 µM	–
COc1ccc(-c2nc3c(nc2-c2ccc(OC)cc2)N(C)S(=O)(=O)N=C3N)cc1	74.9 µM	> 100 µM	94.9 µM	> 100 µM	88.8 µM	–	94.6 µM	94.3 µM	–	44.1 µM	58.8 µM	–	–	> 100 µM	–	> 100 µM	50.1 µM	> 100 µM	29.9 µM	72.7 µM
O=S(=O)(/N=C(\NO)Nc1ccc(Cl)cc1)C1CC=C(c2ccon2)S1 (stereo unspecified)	> 100 µM	72.1 µM	> 100 µM	> 72.3 µM	> 100 µM	> 100 µM	> 100 µM	> 100 µM	> 100 µM	87.3 µM	43.2 µM	> 66.3 µM	> 100 µM	> 100 µM	> 100 µM	> 100 µM	> 100 µM	> 100 µM	> 100 µM	–
COC(=O)c1ccc(C)cc1CC1Cc2c(C)cccc2C1=O (stereo unspecified)	11.1 µM	62.2 µM	30.8 µM	80.1 µM	43.2 µM	7.93 µM	> 100 µM	22 µM	4.38 µM	34.3 µM	45.1 µM	34 µM	8.42 µM	89.7 µM	73.5 µM	> 68.8 µM	34.8 µM	> 46.6 µM	32.2 µM	–
CC(=O)OC(=C(C#N)C#N)c1nccnc1C(C)=O	8.94 µM	> 20 µM	> 20 µM	> 20 µM	> 20 µM	> 20 µM	> 20 µM	> 20 µM	> 20 µM	15.7 µM	> 20 µM	> 20 µM	> 20 µM	> 20 µM	> 20 µM	> 20 µM	> 20 µM	> 20 µM	> 20 µM	–
COc1cc2cc3c4c(cc(OC)c(OC)c4c2cc1OC)CCN3C(=O)CCC(=O)O	> 100 µM	> 100 µM	> 100 µM	> 100 µM	> 100 µM	–	> 100 µM	> 100 µM	–	> 100 µM	> 100 µM	–	–	> 100 µM	> 100 µM	–	> 100 µM	> 100 µM	> 100 µM	> 100 µM
Cc1[nH]c(=O)nc(N(CCO)/N=C/c2ccc(Cl)cc2)c1C(=O)Nc1ccc(Cl)cc1	> 100 µM	> 100 µM	> 100 µM	> 100 µM	> 100 µM	> 100 µM	> 100 µM	> 100 µM	> 100 µM	76.3 µM	68.3 µM	> 100 µM	> 100 µM	> 100 µM	> 100 µM	> 100 µM	> 100 µM	> 100 µM	> 100 µM	–
CCOP(C)(=O)/C(Cc1ccc(OC)c(OC)c1)=N\O (stereo unspecified)	> 100 µM	> 100 µM	> 100 µM	> 100 µM	> 100 µM	> 100 µM	> 100 µM	> 100 µM	> 100 µM	> 100 µM	> 100 µM	> 100 µM	> 100 µM	> 100 µM	> 100 µM	> 100 µM	> 100 µM	> 100 µM	> 100 µM	–
CNc1nc2c(C)ccc3[nH]c(N(C)C)nc3c-2n1	> 100 µM	> 100 µM	> 100 µM	> 100 µM	> 100 µM	> 100 µM	> 100 µM	> 100 µM	> 100 µM	> 100 µM	95.6 µM	> 100 µM	> 100 µM	65 µM	> 100 µM	> 100 µM	> 100 µM	> 100 µM	> 100 µM	–
O[C@H]1[C@H](O)[C@@H](Cn2nnc(-c3ccccc3)c2-c2ccccc2)OCO[C@@H]1Cn1nnc(-c2ccccc2)c1-c1ccccc1	3.61 µM	> 34.5 µM	14.2 µM	14.2 µM	27.2 µM	11.5 µM	6.49 µM	11.7 µM	22.8 µM	9.41 µM	29.6 µM	33.2 µM	16.4 µM	55.4 µM	30.1 µM	18.1 µM	7.39 µM	26.2 µM	5.85 µM	–
Cc1cc(C)c(C(=O)/C=C/c2ccccc2)c(C)c1	> 100 µM	> 100 µM	> 100 µM	> 100 µM	> 100 µM	–	–	> 100 µM	–	34.5 µM	83.5 µM	–	–	75.3 µM	> 100 µM	30 µM	81.6 µM	97.9 µM	–	88.3 µM
CCN(CC)CC(=O)Nc1ccc2c(c1)C(=O)c1ccc(NC(=O)CN(CC)CC)cc1C2=O	> 100 µM	> 100 µM	> 100 µM	51.6 µM	88 µM	–	> 100 µM	> 100 µM	–	29.7 µM	–	–	–	81.3 µM	> 100 µM	94.9 µM	47.2 µM	> 100 µM	34.5 µM	37.4 µM
C=CCn1c(-c2ccc(Cl)cc2Cl)csc1=Nc1c(C)n(C)n(-c2ccccc2)c1=O	25.3 µM	38.1 µM	31.7 µM	31.5 µM	19.4 µM	25.4 µM	31.1 µM	22.5 µM	25.2 µM	32.1 µM	31.4 µM	44.7 µM	30 µM	24.7 µM	13.5 µM	21.7 µM	26.7 µM	23.4 µM	23.9 µM	–
CC(=O)N(C(C)=O)n1nc2c(n1)C(=O)c1ccccc1C2=O	> 100 µM	> 100 µM	> 100 µM	> 100 µM	> 100 µM	> 100 µM	> 100 µM	> 100 µM	> 100 µM	> 100 µM	> 100 µM	> 100 µM	> 100 µM	> 100 µM	> 100 µM	> 100 µM	> 100 µM	> 100 µM	> 100 µM	–
CC(C)CC(NC(=O)C(Cc1ccccc1)NC(=O)C(Cc1ccccc1)NC(=O)OC(C)(C)C)C(=O)OCc1ccccc1 (stereo not drawn) (Boc-Phe-Phe-Leu-OBn; configuration not given here)	> 100 µM	> 100 µM	> 100 µM	> 100 µM	> 100 µM	> 100 µM	> 100 µM	> 100 µM	> 100 µM	> 100 µM	> 100 µM	> 100 µM	> 100 µM	> 100 µM	> 100 µM	> 100 µM	> 100 µM	> 100 µM	> 100 µM	–
S=C(c1c[nH]c2ccccc12)N1CCCCC1	> 100 µM	> 100 µM	> 100 µM	> 100 µM	> 100 µM	> 100 µM	> 100 µM	> 100 µM	> 100 µM	> 100 µM	> 100 µM	> 100 µM	> 100 µM	> 100 µM	> 100 µM	> 100 µM	> 100 µM	> 100 µM	> 100 µM	–
O=C1Nc2ccccc2/C1=C\c1c(Cl)nc2n1CCS2	> 100 µM	> 100 µM	> 100 µM	> 100 µM	74.9 µM	60.6 µM	> 100 µM	32.2 µM	43.9 µM	57.3 µM	62.1 µM	40.1 µM	53.2 µM	> 100 µM	> 100 µM	> 100 µM	60.6 µM	65.8 µM	> 100 µM	–
CS/C=C\C(=O)O[C@H]1C[C@@H]2[C@@H](O)c3occ(C)c3C[C@]2(C)[C@@H](C)C1	51.8 µM	> 100 µM	> 100 µM	40.3 µM	> 100 µM	57.4 µM	> 100 µM	37.9 µM	43.6 µM	47.2 µM	35.6 µM	71.5 µM	41.7 µM	> 100 µM	> 100 µM	50.4 µM	30.2 µM	85.8 µM	32.8 µM	–
CC1=C/C(=C2/N=C(N(C)C)SS2)C(C)=N1	> 100 µM	–	> 100 µM	> 100 µM	> 100 µM	–	> 100 µM	–	–	> 100 µM	> 100 µM	–	–	> 100 µM	> 100 µM	> 100 µM	> 100 µM	> 100 µM	> 100 µM	> 100 µM
COC(=O)C1=COc2c(n(C)c3ccccc23)-c2ccccc21	> 100 µM	> 100 µM	> 100 µM	> 100 µM	> 100 µM	> 100 µM	> 100 µM	> 100 µM	> 100 µM	> 100 µM	> 100 µM	> 100 µM	> 100 µM	> 100 µM	> 100 µM	> 100 µM	> 100 µM	> 100 µM	> 100 µM	–
CCCCc1c2c(nc3c1CC/C(=C\c1ccc([N+](=O)[O-])cc1)C3=O)CCCC2	2.66 µM	6.68 µM	–	3.24 µM	3.91 µM	–	–	3 µM	–	2.63 µM	3.84 µM	–	–	3.67 µM	23.7 µM	3.47 µM	2.77 µM	–	3.05 µM	4.4 µM
COc1ccc(N(C(=O)NCCO)c2ccccc2)cc1	> 100 µM	> 100 µM	> 100 µM	> 100 µM	> 100 µM	> 100 µM	> 100 µM	> 100 µM	> 100 µM	> 100 µM	> 100 µM	> 100 µM	> 100 µM	> 100 µM	> 100 µM	> 100 µM	> 100 µM	> 100 µM	> 100 µM	–
CCOC(=O)N1N(c2ccccc2)C(=O)C1(c1ccccc1)c1ccccc1	> 100 µM	> 100 µM	> 100 µM	> 100 µM	> 100 µM	> 100 µM	> 100 µM	> 100 µM	> 100 µM	> 100 µM	> 100 µM	> 100 µM	> 100 µM	> 100 µM	> 100 µM	> 100 µM	> 100 µM	> 100 µM	> 100 µM	–
Clc1cccc2c1OCC1C(c3ccccc3)=NN(c3ccccc3)C21 (stereo unspecified)	> 100 µM	> 100 µM	–	> 100 µM	> 100 µM	–	> 100 µM	–	–	> 100 µM	> 100 µM	–	–	> 100 µM	> 100 µM	> 100 µM	> 100 µM	> 100 µM	> 100 µM	> 100 µM
Oc1ccccc1-c1nn2c(CCCCCCCCc3nnc4sc(-c5ccccc5O)nn34)nnc2s1	> 67.7 µM	39.3 µM	> 100 µM	> 100 µM	83.8 µM	> 100 µM	> 76.6 µM	> 100 µM	> 100 µM	> 64.1 µM	> 100 µM	> 100 µM	> 100 µM	> 100 µM	> 88.9 µM	> 100 µM	> 100 µM	> 100 µM	> 64.1 µM	–
C[N+](C)(C)C(C1=CCCC1=O)c1ccccc1 (stereo unspecified)	56 µM	> 100 µM	63.9 µM	> 100 µM	> 100 µM	56.7 µM	> 100 µM	38.8 µM	72.7 µM	41.8 µM	41 µM	66.3 µM	75.5 µM	> 100 µM	> 100 µM	65.6 µM	39.9 µM	> 100 µM	38.3 µM	–
